What was measured:
Experiment in all cases: Kinase Hotspot radiolabel assay
Assay type in all cases: biochemical
Conditions in all cases: read-out: % Residual Activity
LOK/STK10 = molecular target: T1, LOK/STK10 (Homo sapiens, UniProt O94804)
T1 construct: purchased Reaction Biology Corporation (Kinase HotSpot)
Method in brief: (§1)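 Specificity was assessed across 369 kinases in a radioactive Hotspot assay, testing one compound concentration (1 µM). For any kinase inhibited above 90%, a Ki value was subsequently obtained.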

GCK/MAP4K2 = molecular target: T2, GCK/MAP4K2 (Homo sapiens, UniProt Q12851)
T2 construct: purchased Reaction Biology Corporation (Kinase HotSpot)
Method in brief: as §1

MARK1 = molecular target: T3, MARK1 (Homo sapiens, UniProt Q9P0L2)
T3 construct: purchased Reaction Biology Corporation (Kinase HotSpot)
Method in brief: as §1

CAMK2d = molecular target: T4, CAMK2d (Homo sapiens, UniProt Q13557)
T4 construct: purchased Reaction Biology Corporation (Kinase HotSpot)
T4 sequence (Q13557 whole entry): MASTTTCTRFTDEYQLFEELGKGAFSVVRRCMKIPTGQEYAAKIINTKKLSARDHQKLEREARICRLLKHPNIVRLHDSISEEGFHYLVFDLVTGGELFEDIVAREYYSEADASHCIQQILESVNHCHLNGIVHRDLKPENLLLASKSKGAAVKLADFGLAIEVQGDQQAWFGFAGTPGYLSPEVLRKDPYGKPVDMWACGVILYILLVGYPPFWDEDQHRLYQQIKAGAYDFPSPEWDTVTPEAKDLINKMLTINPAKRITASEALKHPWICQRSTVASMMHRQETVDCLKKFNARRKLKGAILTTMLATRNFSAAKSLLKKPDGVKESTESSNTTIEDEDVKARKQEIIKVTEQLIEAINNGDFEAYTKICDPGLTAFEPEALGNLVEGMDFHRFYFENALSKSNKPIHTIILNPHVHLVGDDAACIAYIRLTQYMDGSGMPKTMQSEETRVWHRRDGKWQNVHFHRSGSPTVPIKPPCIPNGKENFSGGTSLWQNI
Method in brief: as §1

MEK2 = molecular target: T5, MEK2 (Homo sapiens, UniProt P36507)
T5 construct: purchased Reaction Biology Corporation (Kinase HotSpot)
Method in brief: as §1

TRKB = molecular target: T6, TRKB (Homo sapiens, UniProt Q16620)
T6 construct: purchased Reaction Biology Corporation (Kinase HotSpot)
Method in brief: as §1

VRK1 = molecular target: T7, VRK1 (Homo sapiens, UniProt Q99986)
T7 construct: purchased Reaction Biology Corporation (Kinase HotSpot)
Method in brief: as §1

ZAP70 = molecular target: T8, ZAP70 (Homo sapiens, UniProt P43403)
T8 construct: purchased Reaction Biology Corporation (Kinase HotSpot)
Method in brief: as §1

LATS2 = molecular target: T9, LATS2 (Homo sapiens, UniProt Q9NRM7)
T9 construct: purchased Reaction Biology Corporation (Kinase HotSpot)
Method in brief: as §1

MINK/MINK1 = molecular target: T10, MINK/MINK1 (Homo sapiens, UniProt Q8N4C8)
T10 construct: purchased Reaction Biology Corporation (Kinase HotSpot)
Method in brief: as §1

TBK1 = molecular target: T11, TBK1 (Homo sapiens, UniProt Q9UHD2)
T11 construct: purchased Reaction Biology Corporation (Kinase HotSpot)
T11 sequence (Q9UHD2 whole entry): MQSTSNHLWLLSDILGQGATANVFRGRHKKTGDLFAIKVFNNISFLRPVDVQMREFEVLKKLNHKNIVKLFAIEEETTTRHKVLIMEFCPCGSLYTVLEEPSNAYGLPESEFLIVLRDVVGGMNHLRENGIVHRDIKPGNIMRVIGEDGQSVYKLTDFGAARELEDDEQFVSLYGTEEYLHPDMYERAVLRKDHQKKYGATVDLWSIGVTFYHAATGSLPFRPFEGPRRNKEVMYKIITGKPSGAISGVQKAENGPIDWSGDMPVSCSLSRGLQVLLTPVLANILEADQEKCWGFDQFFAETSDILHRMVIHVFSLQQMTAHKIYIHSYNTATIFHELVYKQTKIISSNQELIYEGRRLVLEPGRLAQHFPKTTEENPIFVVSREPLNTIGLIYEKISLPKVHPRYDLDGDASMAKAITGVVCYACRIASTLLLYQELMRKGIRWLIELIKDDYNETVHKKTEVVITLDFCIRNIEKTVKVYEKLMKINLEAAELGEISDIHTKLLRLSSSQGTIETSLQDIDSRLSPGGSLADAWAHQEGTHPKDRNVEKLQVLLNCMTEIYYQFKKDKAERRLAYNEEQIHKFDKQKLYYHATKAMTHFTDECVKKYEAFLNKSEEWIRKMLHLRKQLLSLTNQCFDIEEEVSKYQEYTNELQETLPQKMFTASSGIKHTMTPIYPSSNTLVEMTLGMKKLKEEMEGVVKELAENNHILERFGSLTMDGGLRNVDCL
Method in brief: as §1

PKAcg = molecular target: T12, PKAcg (Homo sapiens, UniProt P22612)
T12 construct: purchased Reaction Biology Corporation (Kinase HotSpot)
Method in brief: as §1

p70S6K/RPS6KB1 = molecular target: T13, p70S6K/RPS6KB1 (Homo sapiens, UniProt P23443)
T13 construct: purchased Reaction Biology Corporation (Kinase HotSpot)
T13 sequence (P23443 whole entry): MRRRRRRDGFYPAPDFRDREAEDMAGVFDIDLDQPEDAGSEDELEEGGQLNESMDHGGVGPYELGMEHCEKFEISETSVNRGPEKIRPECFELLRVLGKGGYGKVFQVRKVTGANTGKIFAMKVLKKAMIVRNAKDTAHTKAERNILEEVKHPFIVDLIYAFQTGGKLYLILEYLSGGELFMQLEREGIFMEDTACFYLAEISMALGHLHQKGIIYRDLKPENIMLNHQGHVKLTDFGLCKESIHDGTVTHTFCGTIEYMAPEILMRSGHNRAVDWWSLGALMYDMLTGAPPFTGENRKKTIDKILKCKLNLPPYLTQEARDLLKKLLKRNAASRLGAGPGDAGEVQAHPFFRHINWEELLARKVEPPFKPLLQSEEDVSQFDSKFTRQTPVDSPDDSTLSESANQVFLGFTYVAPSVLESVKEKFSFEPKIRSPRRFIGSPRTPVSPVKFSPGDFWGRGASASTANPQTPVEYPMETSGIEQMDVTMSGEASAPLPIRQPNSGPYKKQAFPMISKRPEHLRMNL
Method in brief: as §1

MSK2/RPS6KA4 = molecular target: T14, MSK2/RPS6KA4 (Homo sapiens, UniProt O75676)
T14 construct: purchased Reaction Biology Corporation (Kinase HotSpot)
Method in brief: as §1

TYRO3/SKY = molecular target: T15, TYRO3/SKY (Homo sapiens, UniProt Q06418)
T15 construct: purchased Reaction Biology Corporation (Kinase HotSpot)
T15 sequence (Q06418 41-890): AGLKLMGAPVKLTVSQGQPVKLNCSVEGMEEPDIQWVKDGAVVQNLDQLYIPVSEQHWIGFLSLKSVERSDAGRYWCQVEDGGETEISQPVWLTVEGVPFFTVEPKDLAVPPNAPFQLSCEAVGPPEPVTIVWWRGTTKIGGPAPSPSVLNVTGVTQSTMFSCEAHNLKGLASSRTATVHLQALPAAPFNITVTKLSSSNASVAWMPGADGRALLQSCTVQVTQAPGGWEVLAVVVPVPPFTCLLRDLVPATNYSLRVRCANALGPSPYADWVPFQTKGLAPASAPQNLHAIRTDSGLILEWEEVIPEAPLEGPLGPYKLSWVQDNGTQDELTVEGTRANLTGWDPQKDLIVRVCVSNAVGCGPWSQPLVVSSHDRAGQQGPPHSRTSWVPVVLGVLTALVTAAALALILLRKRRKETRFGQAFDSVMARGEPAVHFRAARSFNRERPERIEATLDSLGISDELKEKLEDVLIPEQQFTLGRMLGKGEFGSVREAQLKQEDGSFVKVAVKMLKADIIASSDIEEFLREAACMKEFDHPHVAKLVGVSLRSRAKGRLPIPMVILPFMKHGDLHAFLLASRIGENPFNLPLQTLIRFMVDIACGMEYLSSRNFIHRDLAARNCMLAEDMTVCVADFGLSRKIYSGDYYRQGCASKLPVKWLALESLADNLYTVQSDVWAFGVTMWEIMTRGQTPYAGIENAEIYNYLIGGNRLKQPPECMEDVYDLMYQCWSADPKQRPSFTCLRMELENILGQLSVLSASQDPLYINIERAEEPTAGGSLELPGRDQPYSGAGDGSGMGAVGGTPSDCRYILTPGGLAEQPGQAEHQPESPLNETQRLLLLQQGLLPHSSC
Method in brief: as §1

PLK3 = molecular target: T16, PLK3 (Homo sapiens, UniProt Q9H4B4)
T16 construct: purchased Reaction Biology Corporation (Kinase HotSpot)
T16 sequence (Q9H4B4 whole entry): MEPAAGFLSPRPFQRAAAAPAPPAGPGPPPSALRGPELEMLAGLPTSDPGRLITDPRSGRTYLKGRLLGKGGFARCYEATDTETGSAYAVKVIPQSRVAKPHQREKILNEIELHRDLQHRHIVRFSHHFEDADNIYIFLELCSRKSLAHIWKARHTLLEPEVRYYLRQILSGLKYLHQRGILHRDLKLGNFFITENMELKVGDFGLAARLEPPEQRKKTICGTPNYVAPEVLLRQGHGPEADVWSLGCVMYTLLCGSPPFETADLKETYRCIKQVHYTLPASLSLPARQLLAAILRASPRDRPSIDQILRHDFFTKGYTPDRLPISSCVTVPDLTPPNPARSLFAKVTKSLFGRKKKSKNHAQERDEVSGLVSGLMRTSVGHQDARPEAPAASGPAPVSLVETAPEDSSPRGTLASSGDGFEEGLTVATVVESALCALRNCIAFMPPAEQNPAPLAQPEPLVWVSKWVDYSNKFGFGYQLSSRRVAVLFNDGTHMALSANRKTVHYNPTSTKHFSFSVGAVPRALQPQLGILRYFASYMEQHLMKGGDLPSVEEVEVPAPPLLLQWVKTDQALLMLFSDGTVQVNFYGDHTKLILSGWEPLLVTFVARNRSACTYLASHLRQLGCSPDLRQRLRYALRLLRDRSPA
Method in brief: as §1

MELK = molecular target: T17, MELK (Homo sapiens, UniProt Q14680)
T17 construct: purchased Reaction Biology Corporation (Kinase HotSpot)
T17 sequence (Q14680 whole entry): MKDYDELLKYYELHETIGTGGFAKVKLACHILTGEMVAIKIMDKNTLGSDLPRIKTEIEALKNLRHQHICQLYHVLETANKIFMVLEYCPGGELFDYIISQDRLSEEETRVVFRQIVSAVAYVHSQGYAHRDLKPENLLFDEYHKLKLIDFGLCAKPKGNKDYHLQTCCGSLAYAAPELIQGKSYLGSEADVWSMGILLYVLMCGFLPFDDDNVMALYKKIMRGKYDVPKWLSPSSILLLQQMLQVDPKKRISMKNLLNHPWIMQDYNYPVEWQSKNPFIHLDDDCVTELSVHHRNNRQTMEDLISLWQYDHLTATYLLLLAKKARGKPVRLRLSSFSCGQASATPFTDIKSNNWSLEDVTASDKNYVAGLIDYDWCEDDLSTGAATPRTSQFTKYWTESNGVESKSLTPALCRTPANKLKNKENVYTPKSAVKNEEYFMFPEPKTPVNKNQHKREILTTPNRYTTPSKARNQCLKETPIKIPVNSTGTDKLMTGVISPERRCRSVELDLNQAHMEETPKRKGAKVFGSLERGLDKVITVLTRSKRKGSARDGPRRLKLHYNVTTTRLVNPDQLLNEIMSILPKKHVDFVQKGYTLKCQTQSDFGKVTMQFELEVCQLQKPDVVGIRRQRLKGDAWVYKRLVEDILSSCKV
Method in brief: as §1

VRK2 = molecular target: T18, VRK2 (Homo sapiens, UniProt Q86Y07)
T18 construct: purchased Reaction Biology Corporation (Kinase HotSpot)
Method in brief: as §1

GRK2 = molecular target: T19, GRK2 (Homo sapiens, UniProt P25098)
T19 construct: purchased Reaction Biology Corporation (Kinase HotSpot)
Method in brief: as §1

OSR1/OXSR1 = molecular target: T20, OSR1/OXSR1 (Homo sapiens, UniProt O95747)
T20 construct: purchased Reaction Biology Corporation (Kinase HotSpot)
Method in brief: as §1

JAK3 = molecular target: T21, JAK3 (Homo sapiens, UniProt P52333)
T21 construct: purchased Reaction Biology Corporation (Kinase HotSpot)
Method in brief: as §1

IRAK4 = molecular target: T22, IRAK4 (Homo sapiens, UniProt Q9NWZ3)
T22 construct: purchased Reaction Biology Corporation (Kinase HotSpot)
Method in brief: as §1

EPHB3 = molecular target: T23, EPHB3 (Homo sapiens, UniProt P54753)
T23 construct: purchased Reaction Biology Corporation (Kinase HotSpot)
Method in brief: as §1

NEK5 = molecular target: T24, NEK5 (Homo sapiens, UniProt Q6P3R8)
T24 construct: purchased Reaction Biology Corporation (Kinase HotSpot)
Method in brief: as §1

EPHA3 = molecular target: T25, EPHA3 (Homo sapiens, UniProt P29320)
T25 construct: purchased Reaction Biology Corporation (Kinase HotSpot)
Method in brief: as §1

LYN = molecular target: T26, LYN (Homo sapiens, UniProt P07948)
T26 construct: purchased Reaction Biology Corporation (Kinase HotSpot)
Method in brief: as §1

MEKK6 = molecular target: T27, MEKK6 (Homo sapiens, UniProt O95382)
T27 construct: purchased Reaction Biology Corporation (Kinase HotSpot)
Method in brief: as §1

RIPK3 = molecular target: T28, RIPK3 (Homo sapiens, UniProt Q9Y572)
T28 construct: purchased Reaction Biology Corporation (Kinase HotSpot)
Method in brief: as §1

MKK4 = molecular target: T29, MKK4 (Homo sapiens, UniProt P45985)
T29 construct: purchased Reaction Biology Corporation (Kinase HotSpot)
Method in brief: as §1

ZAK/MLTK = molecular target: T30, ZAK/MLTK (Homo sapiens, UniProt Q9NYL2)
T30 construct: purchased Reaction Biology Corporation (Kinase HotSpot)
Method in brief: as §1

T1 sequence (O94804 whole entry): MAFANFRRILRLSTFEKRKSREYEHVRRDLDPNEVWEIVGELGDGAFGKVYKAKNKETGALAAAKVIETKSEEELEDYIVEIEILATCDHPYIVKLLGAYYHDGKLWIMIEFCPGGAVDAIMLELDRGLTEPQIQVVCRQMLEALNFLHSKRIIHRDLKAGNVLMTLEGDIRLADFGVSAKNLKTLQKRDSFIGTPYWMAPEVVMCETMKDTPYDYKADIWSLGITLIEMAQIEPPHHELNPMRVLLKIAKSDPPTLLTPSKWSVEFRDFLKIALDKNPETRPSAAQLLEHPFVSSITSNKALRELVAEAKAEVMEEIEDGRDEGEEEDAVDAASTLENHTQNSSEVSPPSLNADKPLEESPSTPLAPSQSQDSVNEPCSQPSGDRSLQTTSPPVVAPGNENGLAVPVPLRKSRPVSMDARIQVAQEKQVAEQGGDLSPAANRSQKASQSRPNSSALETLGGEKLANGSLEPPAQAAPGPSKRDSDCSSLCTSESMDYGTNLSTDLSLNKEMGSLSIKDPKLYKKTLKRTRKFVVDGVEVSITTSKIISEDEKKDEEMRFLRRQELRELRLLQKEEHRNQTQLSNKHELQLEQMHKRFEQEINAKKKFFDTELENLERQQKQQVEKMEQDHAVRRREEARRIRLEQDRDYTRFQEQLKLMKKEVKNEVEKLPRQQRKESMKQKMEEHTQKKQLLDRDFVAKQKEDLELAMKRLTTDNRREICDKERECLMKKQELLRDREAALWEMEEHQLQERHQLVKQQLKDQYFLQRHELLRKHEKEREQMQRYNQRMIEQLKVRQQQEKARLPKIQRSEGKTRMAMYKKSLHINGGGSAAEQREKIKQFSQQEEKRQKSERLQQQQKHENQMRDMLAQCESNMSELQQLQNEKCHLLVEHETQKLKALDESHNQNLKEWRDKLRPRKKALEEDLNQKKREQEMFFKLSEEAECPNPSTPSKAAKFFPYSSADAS

Compound: Cc1cnc(N[C@H]2CC[C@H](N)CC2)nc1-c1cnc2ccc(-c3ccccc3)cn12 [CDDD11-8]
- remaining activity at 1 µM (LOK/STK10): 55.8%
- remaining activity at 1 µM (GCK/MAP4K2): 24.8%
- remaining activity at 1 µM (MARK1): 46.6%
- remaining activity at 1 µM (CAMK2d): 17.3%
- remaining activity at 1 µM (MEK2): 79.1%
- remaining activity at 1 µM (TRKB): 10.8%
- remaining activity at 1 µM (VRK1): 42.4%
- remaining activity at 1 µM (ZAP70): 101%
- remaining activity at 1 µM (LATS2): 30.2%
- remaining activity at 1 µM (MINK/MINK1): 8.86%
- remaining activity at 1 µM (TBK1): 94.6%
- remaining activity at 1 µM (PKAcg): 86.7%
- remaining activity at 1 µM (p70S6K/RPS6KB1): 94.5%
- remaining activity at 1 µM (MSK2/RPS6KA4): 97.4%
- remaining activity at 1 µM (TYRO3/SKY): 82.2%
- remaining activity at 1 µM (PLK3): 109%
- remaining activity at 1 µM (MELK): 66.9%
- remaining activity at 1 µM (VRK2): 35.7%
- remaining activity at 1 µM (GRK2): 95.9%
- remaining activity at 1 µM (OSR1/OXSR1): 101%
- remaining activity at 1 µM (JAK3): 48.5%
- remaining activity at 1 µM (IRAK4): 59.2%
- remaining activity at 1 µM (EPHB3): 92.7%
- remaining activity at 1 µM (NEK5): 28.7%
- remaining activity at 1 µM (EPHA3): 94%
- remaining activity at 1 µM (LYN): 65.5%
- remaining activity at 1 µM (MEKK6): 104%
- remaining activity at 1 µM (RIPK3): 97.5%
- remaining activity at 1 µM (MKK4): 75.6%
- remaining activity at 1 µM (ZAK/MLTK): 83.3%

— article PMC8909834, “An Orally Bioavailable and Highly Efficacious Inhibitor of CDK9/FLT3 for the Treatment of Acute Myeloid Leukemia” (Cancers, 2022)
